Read-outs that look alike come from different tables or passages of the source.
Assays:
[1] = tested on: CD11b (macrophage) monocytes; assay: FITC-PIF assay, binding to CD11b monocytes; settings: for CD11b %: FITC-PIF binding
[2] = tested on: CD19 (B cell) monocytes; assay: FITC-PIF assay, binding to CD19 monocytes
[3] = molecular target: insulin degrading enzyme (IDE) (Homo sapiens, UniProt P14735); assay: Fluorescent based thermal shift assay; format: binding; settings: ligands 10 uM, receptor 1 uM
Description: Concentrations of the ligands 10 uM and 1 uM of the receptor, buffer consisting of 10 mM HEPES-HCL, 150 mM […], and protein folding sensitive dye SyO 1:1000.
(§1) (FIG. 2). […] (FIG. 3). […] (FIG. 4). […] Thus dependent on the target Kv1.3 or IDE the mutated PIF-1 can have a target-specific effect which can also translate to diverse biological activity.

[4] = tested on: Jurkat T-cells; assay: K+ flux inhibition in Jurkat T-cells; format: cell-based; settings: compared with control
Excerpt: as §1

[5] = tested on: let-7; assay: let-7 microRNA levels in microglia and neural cell lines; format: cell-based
Excerpt: as §1
This direct effect on target cells was confirmed by targeting microglia and neuron cell line (Neu) in vitro (FIGS. 5C, D). […] Phosphorylated CREB in turn facilitates expression of (Gap43, Bdnf and Bcl2) (FIG. 5F) that play important role regulating neuronal growth, survival, which is dependent on TLR4 signaling (FIG. 5G). PKA/PKC was reported to impart TBI (Lucke-Wold, Logsdon et al. 2014; Zohar, Lavy et al. 2011; Titus 2013). […] For currently used neuroprotective drugs ability to reach the brain in both intact and damaged settings is difficult. Therefore frequently drugs in order to pass the BBB they have to be very small, or have to be added to agents that would favor passage.

Sequence | binding affinity to CD11b monocytes compared to natural PIF [1] | CD11b % [1] | binding affinity to CD19 monocytes compared to natural PIF [2] | CD19 % ([2]; FITC-PIF binding) | Tm / thermal shift compared to PIF(wt) ([3]; listed as PIF(mutant-3)) | Tm / thermal shift compared to PIF(wt) ([3]; listed as mut-3) | effect on K+ flux [4] | effect on let-7 microRNA [5] | CD19 % [2] | Tm / thermal shift compared to PIF(wt) ([3]; listed as PIF(mutant-1)) | Tm / thermal shift compared to PIF(wt) ([3]; listed as mut-1)
MVRGKPGSANKPSDD [SEQ ID NO: 8, PIF mutant] | higher binding affinity | 35.48% | higher binding affinity | 5.60% | increased Tm | activity was decreased | no effect | lack of effect |  |  | 
AVRIKPGSANKPSDD [SEQ ID NO: 10] | higher binding affinity | 33.54% | higher binding affinity |  |  |  |  |  | 5.90% |  | 
MVRIKEGSANKPSDD [SEQ ID NO: 7, PIF mutant] |  |  |  |  |  |  | no effect |  |  | decreased Tm | reduced thermal shift
